Data: ChEMBL document CHEMBL1125855, “C-2 desmethyl seco-mevinic acids. Monocyclic HMG-CoA reductase inbibitors” (Bioorg Med Chem Lett, 1991)

biological target: T1, 3-hydroxy-3-methylglutaryl-coenzyme A reductase (Homo sapiens, UniProt P04035); assay: (§1) In vitro ability to inhibit HMG-CoA reductase; conditions: read-out: I50
T1 sequence (P04035 whole entry): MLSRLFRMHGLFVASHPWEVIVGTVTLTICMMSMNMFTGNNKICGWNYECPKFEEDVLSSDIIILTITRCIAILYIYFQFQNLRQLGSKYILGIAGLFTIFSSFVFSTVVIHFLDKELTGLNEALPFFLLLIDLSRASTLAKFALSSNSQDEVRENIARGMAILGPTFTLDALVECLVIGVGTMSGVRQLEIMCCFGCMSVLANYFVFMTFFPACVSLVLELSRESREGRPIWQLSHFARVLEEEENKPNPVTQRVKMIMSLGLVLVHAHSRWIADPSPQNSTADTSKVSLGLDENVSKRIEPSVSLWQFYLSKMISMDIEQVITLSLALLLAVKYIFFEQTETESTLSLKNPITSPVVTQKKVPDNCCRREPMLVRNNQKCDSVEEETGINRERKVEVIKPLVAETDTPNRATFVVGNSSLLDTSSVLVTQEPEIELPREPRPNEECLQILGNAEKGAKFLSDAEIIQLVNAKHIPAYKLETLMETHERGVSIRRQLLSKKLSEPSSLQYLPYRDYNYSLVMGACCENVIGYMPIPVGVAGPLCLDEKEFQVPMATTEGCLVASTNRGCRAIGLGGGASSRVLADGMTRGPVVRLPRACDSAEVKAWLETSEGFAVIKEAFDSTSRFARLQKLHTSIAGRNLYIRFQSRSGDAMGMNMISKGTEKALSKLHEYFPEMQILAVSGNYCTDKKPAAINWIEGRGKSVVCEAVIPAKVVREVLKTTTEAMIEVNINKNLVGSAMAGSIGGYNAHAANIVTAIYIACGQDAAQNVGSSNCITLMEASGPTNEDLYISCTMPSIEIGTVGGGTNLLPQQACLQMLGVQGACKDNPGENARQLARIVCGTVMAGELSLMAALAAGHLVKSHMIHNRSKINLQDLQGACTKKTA

SMILES	IC50 [µM]
CCC[C@@H]1CC[C@H](C)[C@H](CC[C@@H](O)C[C@@H](O)CC(=O)O)[C@H]1COC(=O)C(C)(C)CC	0.008
CCC[C@@H]1CCC[C@H](CC[C@@H](O)C[C@@H](O)CC(=O)O)[C@H]1COC(=O)C(C)(C)CC	1.7
CCC[C@@H]1CCC[C@H](/C=C/[C@@H](O)C[C@@H](O)CC(=O)O)[C@H]1COC(=O)C(C)(C)CC	4.9
CCC(C)(C)C(=O)OC[C@H]1CCCC[C@@H]1CCC(O)C[C@@H](O)CC(=O)O (stereo partly specified)	4.6
C[C@H]1C=CC[C@H](COC(=O)C(C)(C)C)[C@H]1CCC(O)CC(O)CC(=O)O (stereo partly specified)	1500

biological target: T2, 3-hydroxy-3-methylglutaryl-coenzyme A reductase (Rattus norvegicus, UniProt P51639); assay: as §1; conditions: read-out: I50
T2 sequence (P51639 whole entry): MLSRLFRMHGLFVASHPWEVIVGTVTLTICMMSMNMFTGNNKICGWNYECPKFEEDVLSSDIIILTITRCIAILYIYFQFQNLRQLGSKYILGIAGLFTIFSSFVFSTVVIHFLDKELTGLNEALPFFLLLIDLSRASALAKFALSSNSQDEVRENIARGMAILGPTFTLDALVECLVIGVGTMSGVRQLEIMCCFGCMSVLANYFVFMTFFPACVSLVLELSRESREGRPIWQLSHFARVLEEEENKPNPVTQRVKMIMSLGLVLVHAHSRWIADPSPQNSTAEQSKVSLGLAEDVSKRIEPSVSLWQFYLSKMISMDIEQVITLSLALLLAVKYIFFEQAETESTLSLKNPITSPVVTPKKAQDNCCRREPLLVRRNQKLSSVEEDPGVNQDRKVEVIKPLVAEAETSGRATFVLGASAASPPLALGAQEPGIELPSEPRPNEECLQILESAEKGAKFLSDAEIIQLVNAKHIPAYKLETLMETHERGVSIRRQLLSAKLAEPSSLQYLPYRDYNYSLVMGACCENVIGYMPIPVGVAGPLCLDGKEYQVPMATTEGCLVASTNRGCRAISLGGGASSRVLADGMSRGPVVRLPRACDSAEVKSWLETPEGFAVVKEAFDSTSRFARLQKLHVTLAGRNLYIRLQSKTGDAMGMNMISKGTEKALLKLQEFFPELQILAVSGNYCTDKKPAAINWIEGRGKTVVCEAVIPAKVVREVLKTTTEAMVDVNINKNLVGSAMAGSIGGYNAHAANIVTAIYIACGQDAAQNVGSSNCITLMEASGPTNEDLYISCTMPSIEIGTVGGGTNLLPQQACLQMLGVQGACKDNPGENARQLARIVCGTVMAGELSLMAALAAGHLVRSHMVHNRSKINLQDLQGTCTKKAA

SMILES	IC50 [µM]
CC[C@H](C)C(=O)OC[C@H]1CCCC[C@@H]1CCC(=O)C[C@@H](O)CC(=O)O	320
